# From ChEMBL document CHEMBL1201862, “PubChem BioAssay data set” (2004)
#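 1) Cells in 96-well plates. 2) Compound, 48 h, 5 concentrations. 3) Linear interpolation between surrounding doses. 4) Unreached endpoint = highest concentration. GI50 = concentration required for 50% inhibition of growth.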 The source made the active and inactive calls. Rule as the data show it: active = GI50 up to about 1.1 µM and inactive = higher.
# Assays:
# Assay in all cases: DTP human tumour cell line panel, 48 h
# DMS-273 = test system: DMS-273
# OVCAR-3 = test system: OVCAR-3
# SN12C = test system: SN12C
# RXF 393 = test system: RXF 393
# RPMI-8226 = test system: RPMI-8226
# U-251 = test system: U-251
# NCI-H460 = test system: NCI-H460
# UO-31 = test system: UO-31
# HOP-62 = test system: HOP-62
# M14 = test system: M14
# SF-539 = test system: SF-539
# NCI-H522 = test system: NCI-H522
# SK-OV-3 = test system: SK-OV-3
# HOP-92 = test system: HOP-92
# A549 = test system: A549
# HL-60 = test system: HL-60
# KM12 = test system: KM12
# MDA-MB-435 = test system: MDA-MB-435
# PC-3 = test system: PC-3
# MDA-N = test system: MDA-N
SMILES,GI50 (DMS-273),GI50 (OVCAR-3),GI50 (SN12C),GI50 (RXF 393),GI50 (RPMI-8226),GI50 (U-251),GI50 (NCI-H460),GI50 (UO-31),GI50 (HOP-62),GI50 (M14),GI50 (SF-539),GI50 (NCI-H522),GI50 (SK-OV-3),GI50 (HOP-92),GI50 (A549),GI50 (HL-60),GI50 (KM12),GI50 (MDA-MB-435),GI50 (PC-3),GI50 (MDA-N)
COc1ccccc1/C=C1\CCC(CNc2ccc(Cl)cc2)C1=O (stereo not given),1.74 µM (inactive),10.2 µM (inactive),13.7 µM (inactive),16.3 µM (inactive),1.34 µM (inactive),9.75 µM (inactive),1.43 µM (inactive),3.18 µM (inactive),7.76 µM (inactive),0.242 µM (active),5.82 µM (inactive),1.57 µM (inactive),1.73 µM (inactive),16.4 µM (inactive),5.16 µM (inactive),2.18 µM (inactive),1.1 µM (active),,,
N#Cc1c([N+](=O)[O-])cc(C(F)(F)F)cc1[N+](=O)[O-],4.49 µM (inactive),16.7 µM (inactive),14.1 µM (inactive),2.44 µM (inactive),2.57 µM (inactive),18.8 µM (inactive),19.7 µM (inactive),19.2 µM (inactive),18.4 µM (inactive),4.85 µM (inactive),5.94 µM (inactive),0.59 µM (active),19.1 µM (inactive),1.81 µM (inactive),19.5 µM (inactive),1.66 µM (inactive),5.25 µM (inactive),,,
CCCC1C(=O)C(CC)Cc2c(OC)ccc(OC)c21 (stereo not given),> 100 µM (inactive),> 100 µM (inactive),> 100 µM (inactive),> 100 µM (inactive),> 100 µM (inactive),> 100 µM (inactive),> 100 µM (inactive),> 100 µM (inactive),> 100 µM (inactive),> 100 µM (inactive),> 100 µM (inactive),> 100 µM (inactive),> 100 µM (inactive),> 100 µM (inactive),> 100 µM (inactive),> 100 µM (inactive),> 100 µM (inactive),,,
O=C1c2ccccc2C(=O)N1CCn1ccc(NC(c2ccccc2)(c2ccccc2)c2ccccc2)nc1=O,17.3 µM (inactive),24.3 µM (inactive),26.2 µM (inactive),18.8 µM (inactive),19.8 µM (inactive),16.4 µM (inactive),23.6 µM (inactive),21.2 µM (inactive),17.5 µM (inactive),22 µM (inactive),16 µM (inactive),20.2 µM (inactive),43.8 µM (inactive),18.5 µM (inactive),28.2 µM (inactive),19 µM (inactive),20.8 µM (inactive),,,
OCCOc1ccc(-c2cc(-c3ccccn3)nc(-c3ccccn3)c2)cc1,0.143 µM (active),0.11 µM (active),0.195 µM (active),0.337 µM (active),0.242 µM (active),0.148 µM (active),0.0849 µM (active),0.124 µM (active),0.106 µM (active),0.219 µM (active),0.19 µM (active),0.661 µM (active),0.308 µM (active),0.499 µM (active),0.172 µM (active),0.0538 µM (active),0.296 µM (active),0.526 µM (active),0.296 µM (active),0.697 µM (active)
O=C(c1ccccc1)c1nc2ccc(Cl)cc2cc1C(Br)Br,0.286 µM (active),0.326 µM (active),0.252 µM (active),0.216 µM (active),0.229 µM (active),0.192 µM (active),0.281 µM (active),0.385 µM (active),0.641 µM (active),1.72 µM (inactive),0.246 µM (active),1.82 µM (inactive),0.605 µM (active),0.527 µM (active),1.44 µM (inactive),0.222 µM (active),0.34 µM (active),0.282 µM (active),0.225 µM (active),
N#CCc1cccc(CC#N)c1Br,> 100 µM (inactive),> 100 µM (inactive),> 100 µM (inactive),35 µM (inactive),> 100 µM (inactive),> 100 µM (inactive),> 100 µM (inactive),> 100 µM (inactive),> 100 µM (inactive),> 100 µM (inactive),> 100 µM (inactive),> 100 µM (inactive),> 100 µM (inactive),45.2 µM (inactive),> 100 µM (inactive),> 100 µM (inactive),> 100 µM (inactive),,,
CCN(CC)CCCN1CCc2c([nH]c3ccccc23)C1c1cccnc1 (stereo not given),> 100 µM (inactive),88.3 µM (inactive),> 100 µM (inactive),> 100 µM (inactive),> 100 µM (inactive),> 100 µM (inactive),> 100 µM (inactive),83.9 µM (inactive),> 100 µM (inactive),61.2 µM (inactive),> 100 µM (inactive),> 100 µM (inactive),> 100 µM (inactive),29.2 µM (inactive),> 100 µM (inactive),> 100 µM (inactive),> 100 µM (inactive),,,
COc1cc([C@@H]2c3cc4c(cc3[C@@H](NCc3cccc(F)c3)C3COC(=O)[C@@H]32)OCO4)cc(OC)c1O (stereo not given in full),2.21 µM (inactive),12.2 µM (inactive),2.14 µM (inactive),8.85 µM (inactive),2.29 µM (inactive),1.23 µM (inactive),0.37 µM (active),5.57 µM (inactive),1.51 µM (inactive),4.9 µM (inactive),2.52 µM (inactive),6.93 µM (inactive),4.19 µM (inactive),7.53 µM (inactive),1.17 µM (inactive),1.19 µM (inactive),7.01 µM (inactive),,,
O=c1c2c(-c3ccccc3)c3ccccc3nc2cnn1-c1ccccc1,> 100 µM (inactive),55.5 µM (inactive),> 100 µM (inactive),> 100 µM (inactive),> 100 µM (inactive),> 100 µM (inactive),> 100 µM (inactive),> 100 µM (inactive),> 100 µM (inactive),> 100 µM (inactive),> 100 µM (inactive),26.7 µM (inactive),> 100 µM (inactive),> 100 µM (inactive),> 100 µM (inactive),29.4 µM (inactive),90.6 µM (inactive),,,
